# Data from patent US20170020909A1, “METHODS OF TREATING GLAUCOMA USING AMP-ACTIVATED PROTEIN KINASE (AMPK) ACTIVATORS” (Massachusetts Eye and Ear Infirmary, priority 2014, published 2017).
# “Also recorded” adds a separate entry of the source.
# Columns and labels:
# Assay type in all cases: cell-based
# [1] = test system: Acetyl-CoA carboxylase (ACC); assay: Time course immunoblot of p-ACC/total ACC in primary human TM cell lysates; conditions: 0.5 mM AICAR, human TM cells
# Method: (§1) Primary human trabecular meshwork (TM) cells were isolated, in accordance with the Declaration of Helsinki, and maintained in culture as described previously.^63 Independent primary human TM cell lines were generated from donors ranging in age from 35 to 72 years and no known history of ocular disease. Cell cultures were maintained, unless otherwise stated, in Dulbecco's modified eagle medium (Life Technologies, Grand Island, N.Y.) containing 20% fetal bovine serum, 1% L-glutamine (2 mM), and gentamicin (0.1 mg/ml) at 37° C. in a 10% CO2 atmosphere. Only TM cells from third through fifth passage were used. […]
# (§2) At the conclusion of each experiment for matricellular and ECM protein detection, conditioned media (CM) from TM cell cultures was harvested and centrifuged at 5000 rpm for 10 minutes at 4° C. The supernatant was then concentrated (Amicon Ultra-4 Filter Unit, 10 kDa; Millipore, Milford, Mass.), and protein content quantified using the DC Protein Assay kit adhering to manufacturer's protocols (Bio-Rad, Hercules, Calif.). […] Samples were then centrifuged at 14,000 rpm for 15 minutes at 4° C. and protein content quantified. […] The membranes were then washed three times with 1×TBS-T, scanned, and integrated band intensities were calculated using an infrared imaging system (Odyssey; Li-Cor, Lincoln, Nebr.). […]
# RhoA = assay: Immunoblot of p-RhoA (Ser188)/total RhoA in human TM cell lysates; conditions: 0.5 mM AICAR
# Method: as §1, §2
# [2] = test system: primary cultured human TM cells; assay: Phalloidin (F-actin) immunofluorescent staining and morphology of primary cultured human TM cells
# Method: FIG. 6. […] Human TM cells were plated on 8-well slides, treated as in FIG. 3, and then stained with phalloidin (F-actin) antibody. Nuclei were stained with DAPI. Representative immunofluorescent images shown above (n=3). Scale bar, 50 μm. Primary human trabecular meshwork (TM) cells were isolated, in accordance with the Declaration of Helsinki, and maintained in culture as described previously.^63 Independent primary human TM cell lines were generated from donors ranging in age from 35 to 72 years and no known history of ocular disease. Cell cultures were maintained, unless otherwise stated, in Dulbecco's modified eagle medium (Life Technologies, Grand Island, N.Y.) containing 20% fetal bovine serum, 1% L-glutamine (2 mM), and gentamicin (0.1 mg/ml) at 37° C. in a 10% CO2 atmosphere. Only TM cells from third through fifth passage were used. All experiments were performed using at least three different primary human TM cell lines. TM cells in 8 well-slides were fixed for 30 minutes with 4% paraformaldehyde in PBS (pH 7.4) at 4° C., then washed in PBS for 10 minutes twice at RT. Cells were permeabilized with 0.2% Triton-100 in PBS for 5 min and then washed in PBS and blocked in 3% bovine serum albumin (BSA) in PBS for 1 hr at RT. […] Nuclei were stained with TO-DAPI (Invitrogen), and labeled tissues were analyzed by fluorescent light microscopy using a Zeiss Observer3.1.
smiles,measurement,setting,value
"NC(=O)c1ncn([C@@H]2O[C@H](CO)[C@@H](O)[C@H]2O)c1N [AICAR, 5-Aminoimidazole-4-carboxamide riboside]",peak increase of phospho-total ACC ratio,[1]; at 6 hours,6.6 fold
same,change of phospho-total ACC ratio,[1]; within 15 minutes,increased by a statistically significant degree
same,duration of the phospho-total RhoA ratio increase,RhoA; through 24 hours,remained statistically significant through 24 hours
same,increase of phospho-total RhoA ratio (Ser188),"RhoA; within one hour, human TM cells",approximately 10 fold
same,cell morphology,"[2]; 0.5 mM AICAR, cultured TM cells (data not shown)",narrower cell bodies
same,F-actin staining and actin stress fiber formation,"[2]; AICAR, basal and TGF-β2 stimulatory conditions","decreased F-actin staining and actin stress fiber formation; also recorded: decreased F-actin cytoskeletal staining, and fewer actin stress fibers"
